According to paper PMC11628833 (Acta Pharmaceutica Sinica. B, 2024):

Experiments:
hTLR8 = target: T1, hTLR8 (Homo sapiens, UniProt Q9NR97); experiment: SEAP reporter assay in HEK-Blue hTLR8 cells; assay type: cell-based
T1 sequence (Q9NR97 27-1041): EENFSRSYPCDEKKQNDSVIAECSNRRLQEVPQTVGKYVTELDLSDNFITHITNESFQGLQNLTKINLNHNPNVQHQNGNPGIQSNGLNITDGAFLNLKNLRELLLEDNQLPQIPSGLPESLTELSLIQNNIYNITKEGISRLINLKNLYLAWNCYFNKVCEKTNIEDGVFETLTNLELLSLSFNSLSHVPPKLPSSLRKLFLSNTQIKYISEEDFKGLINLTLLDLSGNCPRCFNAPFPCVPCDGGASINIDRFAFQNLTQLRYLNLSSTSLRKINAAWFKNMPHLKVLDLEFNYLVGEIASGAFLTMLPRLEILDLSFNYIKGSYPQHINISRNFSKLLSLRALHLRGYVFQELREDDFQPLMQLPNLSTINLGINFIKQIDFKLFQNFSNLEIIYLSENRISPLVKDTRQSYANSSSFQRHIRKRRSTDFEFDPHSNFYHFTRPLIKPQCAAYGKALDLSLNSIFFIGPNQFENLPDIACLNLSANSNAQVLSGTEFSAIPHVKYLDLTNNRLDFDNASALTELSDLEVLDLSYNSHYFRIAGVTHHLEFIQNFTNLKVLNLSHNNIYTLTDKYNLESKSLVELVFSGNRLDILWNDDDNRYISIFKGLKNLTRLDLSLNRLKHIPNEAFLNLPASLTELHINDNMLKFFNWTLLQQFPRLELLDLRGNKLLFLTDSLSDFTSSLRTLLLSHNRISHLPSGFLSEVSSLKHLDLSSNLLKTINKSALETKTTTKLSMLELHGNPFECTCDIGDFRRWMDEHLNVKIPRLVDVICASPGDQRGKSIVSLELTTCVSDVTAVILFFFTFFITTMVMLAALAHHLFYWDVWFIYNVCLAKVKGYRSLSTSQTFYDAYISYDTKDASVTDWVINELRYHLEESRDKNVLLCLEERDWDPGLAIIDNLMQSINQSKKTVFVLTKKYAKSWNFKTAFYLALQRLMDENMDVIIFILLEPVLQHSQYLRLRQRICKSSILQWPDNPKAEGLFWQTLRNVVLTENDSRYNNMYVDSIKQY

TLR3 = target: T2, TLR3 (Homo sapiens, UniProt O15455); experiment: Specificity test in HEK-Blue TLR-overexpressing cells, TLR3; assay type: cell-based; conditions: 5 μM S-1, HEK-Blue TLR cells, TLR-specific agonist
T2 sequence (O15455 24-904): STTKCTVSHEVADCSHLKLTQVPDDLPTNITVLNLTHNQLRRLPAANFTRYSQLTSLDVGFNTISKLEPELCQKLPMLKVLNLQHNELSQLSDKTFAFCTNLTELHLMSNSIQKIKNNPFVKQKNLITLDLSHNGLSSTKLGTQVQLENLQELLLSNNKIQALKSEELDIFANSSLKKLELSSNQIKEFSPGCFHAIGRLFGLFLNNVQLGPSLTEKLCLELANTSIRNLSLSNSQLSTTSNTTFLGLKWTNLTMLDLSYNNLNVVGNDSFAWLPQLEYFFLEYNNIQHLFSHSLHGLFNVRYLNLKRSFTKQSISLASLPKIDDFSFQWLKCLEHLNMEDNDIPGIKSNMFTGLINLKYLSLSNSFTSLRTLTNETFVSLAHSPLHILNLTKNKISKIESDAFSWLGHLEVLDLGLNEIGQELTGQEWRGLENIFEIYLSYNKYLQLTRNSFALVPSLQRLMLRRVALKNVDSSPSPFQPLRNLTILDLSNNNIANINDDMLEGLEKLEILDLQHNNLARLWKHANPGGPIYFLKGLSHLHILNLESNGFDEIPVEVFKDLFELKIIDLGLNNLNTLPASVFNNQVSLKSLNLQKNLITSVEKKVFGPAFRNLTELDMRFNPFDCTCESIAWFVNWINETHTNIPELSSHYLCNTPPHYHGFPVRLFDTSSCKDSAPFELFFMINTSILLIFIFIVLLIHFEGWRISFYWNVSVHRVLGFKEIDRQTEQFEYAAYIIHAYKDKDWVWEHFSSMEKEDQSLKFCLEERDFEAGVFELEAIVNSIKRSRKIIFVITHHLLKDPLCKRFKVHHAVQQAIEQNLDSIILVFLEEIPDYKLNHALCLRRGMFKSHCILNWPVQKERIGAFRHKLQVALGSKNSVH

With `O=C(c1ccc(Cl)cc1)N1CCN(c2ccc([N+](=O)[O-])c3ncccc23)CC1` [Compound S1] the IC50 (hTLR8) was 130 ± 30 nM and the “inhibition of TLR3” value (TLR3) was “no obvious inhibition”.
